Patent US8906868B2, “Aminoglycoside derivatives” (Rempex Pharmaceuticals, Inc., priority 2010, dated 2014)
Converted amounts (≈) assume the structure as drawn. Read-outs that look alike come from different tables or passages of the source.

Key:
EC1002 aph(3′)-IV = experiment: organism not typed; format: cell-based; conditions: read-out: Compound MIC on Bacterial Strains: EC1002 aph(3′)-IV
Summary of the method: (§1)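 A colony from the previous day's agar plate is suspended in CaMHB to give 5×10^5 CFU/ml final. This inoculum is added to 2-fold compound dilutions, incubated 18 hours at 35° C, and turbidity at 600 nm, checked by eye, defines the MIC.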

ACM1005 ATCC 19004 = experiment: MIC, broth microdilution; format: cell-based, Acinetobacter baumannii; conditions: Acinetobacter baumannii, ATCC19004
Summary of the method: (§2)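 Compounds were dissolved as CLSI specifies and diluted 2-fold in cation-adjusted Mueller Hinton broth. Colony suspensions were added to a final 5×10^5 CFU/ml, plates incubated 18 hours at 35° C, and MIC scored from absorbance at 600 nm with visual confirmation.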

[1] = system: Staphylococcus aureus (ATCC 29213); experiment: MIC, broth microdilution; conditions: Staphylococcus aureus
[2] = Aminoglycoside cytotoxicity in HK-2 cells (Alamar Blue); format: cell-based, Human; conditions: human
Method: (§3) Human kidney cortex proximal tubule cells (HK-2) were purchased from ATCC and maintained according to manufacturer's recommendations in Keratinocyte Serum-Free Media (SFM; Invitrogen), with 0.05 mg/ml bovine pituitary extract and 5 ng/ml of Epidermal growth factor.
(§4) Solutions of aminoglycosides at a concentration of 50 mg/mL (both control and novel test compounds) were prepared in sterile deionized water. Before treatment of cells, the concentrated drug solutions were diluted to the appropriate concentration in Keratinocyte SFM {20, 10, 5, 2.5, 1.25, 0.6, 0.3, and 0 mM}. Pentamidine was used as a positive control.
(§5) HK-2 cells were seeded at 2.5*10^4 cells/well density in 96-well plates in Keratinocyte SFM and placed in a 37° C. tissue culture CO2 incubator. […]. Each treatment was performed in duplicate. […] Drug solutions were aspirated and replaced with 0.1 ml of 5% Alamar Blue (Abd Serotec) cell proliferation reagent in Keratinocyte SFM. Plates were read on a Molecular Devices Gemini EM fluorometer pre-warmed at 37° C. at […]. Plates were read at 0 and 4 hrs, and were incubated at 37° C. in a CO2 incubator in between reads. The fluorescence signal at the 0 h timepoint was subtracted from that at 4 h to account for background fluorescence.
(§6) The cytotoxicity data were reported as the amount of drug producing a 50% decrease in Alamar Blue signal relative to the no drug treatment control.

[3] = system: Human kidney cortex proximal tubule cells (HK-2); experiment: as above; format: cell-based
Method: as §3, §4, §5, §6

ECM6011 aph(3′)-I = experiment: microbe, parasite or virus in culture; format: cell-based, Escherichia coli; conditions: Escherichia coli
Summary of the method: as §1

ECM6010 ant(2″)-I = experiment: microbe, parasite or virus in culture; format: cell-based, Escherichia coli; conditions: Escherichia coli
Summary of the method: as §1

ECM6009 aac(3)-II = experiment: microbe, parasite or virus in culture; format: cell-based, Escherichia coli; conditions: Escherichia coli
Summary of the method: as §1

ECM6006 aph(3′)-III = experiment: microbe, parasite or virus in culture; format: cell-based, Escherichia coli; conditions: Escherichia coli
Summary of the method: as §1

[4] = system: Pseudomonas aeruginosa (ATCC 27853); experiment: MIC, broth microdilution; conditions: Pseudomonas aeruginosa
ECM6003 rmtB = experiment: microbe, parasite or virus in culture; format: cell-based, Escherichia coli; conditions: Escherichia coli
Summary of the method: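 Broth microdilution per CLSI M7-A7 in cation-adjusted Mueller Hinton broth with 2-fold serial dilutions and 5×10^5 CFU/ml inoculum. Incubated 18 hours at 35 °C; MIC read by turbidity at 600 nm and confirmed visually.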

[5] = system: Acinetobacter baumannii (ATCC 19606); experiment: MIC, broth microdilution; conditions: Acinetobacter baumannii
PAM3073 aac(6′)-I = experiment: microbe, parasite or virus in culture; format: cell-based, Pseudomonas aeruginosa; conditions: Pseudomonas aeruginosa
Summary of the method: as §2

PAM3072 aac(6′)-II = experiment: microbe, parasite or virus in culture; format: cell-based, Pseudomonas aeruginosa; conditions: Pseudomonas aeruginosa
Summary of the method: as §2

ACM1006 acc(6′)-Ib = experiment: microbe, parasite or virus in culture; format: cell-based, Acinetobacter baumannii; conditions: Acinetobacter baumannii
Summary of the method: as §2

[6] = Table 4, read-out: Compound MIC on Bacterial Strains: Acinetobacter baumannii ACM1005 ATCC 19004
[7] = Table 7, read-out: MIC Acinetobacter baumannii ACM1005 ATCC 19004
[8] = ATCC29213, read-out: Compound MIC on Bacterial Strains: S. aureus ATCC 29213, QC strain, Table 2
[9] = ATCC29213, read-out: Compound MIC on Bacterial Strains: Staphylococcus aureus SAM1000 ATCC 29213, Table 5
[10] = ATCC29213, read-out: MIC Staphylococcus aureus SAM1000 ATCC 29213, Table 7
[11] = read-out: Compound MIC on Bacterial Strains: ECM6011 aph(3′)-I
[12] = read-out: MIC Escherichia coli ECM6011 aph(3′)-I
[13] = read-out: Compound MIC on Bacterial Strains: ECM6010 ant(2″)-I
[14] = read-out: MIC Escherichia coli ECM6010 ant(2″)
[15] = read-out: Compound MIC on Bacterial Strains: ECM6009 aac(3)-II
[16] = read-out: MIC Escherichia coli ECM6009 aac(3)-II, aph(3′)
[17] = read-out: Compound MIC on Bacterial Strains: ECM6006 aph(3′)-III
[18] = read-out: MIC Escherichia coli ECM6006 aph(3′)-III
[19] = ATCC27853, read-out: Compound MIC on Bacterial Strains: P. aeruginosa ATCC 27853
[20] = ATCC27853, read-out: Compound MIC on Bacterial Strains: Pseudomonas aeruginosa PAM3034 ATCC 27853
[21] = ATCC27853, read-out: MIC Pseudomonas aeruginosa PAM3034 ATCC 27853
[22] = Table 3, read-out: Compound MIC on Bacterial Strains: ECM6003 rmtB
[23] = Table 8, read-out: MIC Escherichia coli ECM6003 rmtB
[24] = ATCC19606, read-out: Compound MIC on Bacterial Strains: A. baumannii ATCC 19606
[25] = ATCC19606, read-out: MIC Acinetobacter baumannii ACM1003 ATCC 19606
[26] = Table 5, read-out: Compound MIC on Bacterial Strains: Pseudomonas aeruginosa PAM3073 aac(6′)-I
[27] = Table 8, read-out: MIC Pseudomonas aeruginosa PAM3073 aac(6′)-I, wt efflux
[28] = Table 5, read-out: Compound MIC on Bacterial Strains: Pseudomonas aeruginosa PAM3072 aac(6′)-II
[29] = Table 8, read-out: MIC Pseudomonas aeruginosa PAM3072 aac(6′)-II or III
[30] = Table 4, read-out: Compound MIC on Bacterial Strains: Acinetobacter baumannii ACM1006 acc(6′)-Ib
[31] = Table 8, read-out: MIC Acinetobacter baumannii ACM1006 aac(6′)-Ib

Row | Structure (SMILES) | MIC (EC1002 aph(3′)-IV) | MIC (ACM1005 ATCC 19004; [6]) | MIC (ACM1005 ATCC 19004; [7]) | MIC [1, 8] | MIC [1, 9] | MIC [1, 10] | IC50 at 24 h [2] | MIC (ECM6011 aph(3′)-I; [11]) | MIC (ECM6011 aph(3′)-I; [12]) | MIC (ECM6010 ant(2″)-I; [13]) | MIC (ECM6010 ant(2″)-I; [14]) | MIC (ECM6009 aac(3)-II; [15]) | MIC (ECM6009 aac(3)-II; [16]) | MIC (ECM6006 aph(3′)-III; [17]) | MIC (ECM6006 aph(3′)-III; [18]) | MIC [4, 19] | MIC [4, 20] | MIC [4, 21] | MIC (ECM6003 rmtB; [22]) | MIC (ECM6003 rmtB; [23]) | other results
1 | CN[C@@H]1C(O)[C@@H](OC2C(O)C(O[C@H]3O[C@H](CNC[C@@H](O)CO)CCC3N)[C@@H](N)C[C@H]2NC(=O)[C@@H](O)CN)OCC1(C)O (stereo partly shown) [Compound 44] | < 1 µg/mL | 1 to 8 µg/mL (≈ 1.64 to 13.1 µM) | 1 to 8 µg/mL (≈ 1.64 to 13.1 µM) | < 1 µg/mL | < 1 µg/mL | < 1 µg/mL | > 20 mM | < 1 µg/mL | < 1 µg/mL | < 1 µg/mL | < 1 µg/mL | < 1 µg/mL | < 1 µg/mL | < 1 µg/mL | 1 to 8 µg/mL (≈ 1.64 to 13.1 µM) | 1 to 8 µg/mL (≈ 1.64 to 13.1 µM) | 1 to 8 µg/mL (≈ 1.64 to 13.1 µM) | 1 to 8 µg/mL (≈ 1.64 to 13.1 µM) | > 8 µg/mL | > 8 µg/mL | cytotoxicity in HK-2 cells (in words) [3]: essentially non-cytotoxic; MIC [5, 24]: > 8 µg/mL; MIC [5, 25]: > 8 µg/mL; MIC (PAM3073 aac(6′)-I; [26]): 1 to 8 µg/mL (≈ 1.64 to 13.1 µM); MIC (PAM3073 aac(6′)-I; [27]): 1 to 8 µg/mL (≈ 1.64 to 13.1 µM); MIC (PAM3072 aac(6′)-II; [28]): > 8 µg/mL; MIC (PAM3072 aac(6′)-II; [29]): > 8 µg/mL; MIC (ACM1006 acc(6′)-Ib; [30]): 1 to 8 µg/mL (≈ 1.64 to 13.1 µM); MIC (ACM1006 acc(6′)-Ib; [31]): 1 to 8 µg/mL (≈ 1.64 to 13.1 µM)
2 | CN[C@@H]1[C@@H](O)[C@@H](O[C@@H]2[C@@H](O)[C@H](O[C@H]3O[C@H](CNC[C@H](O)CO)CC[C@H]3N)[C@@H](N)C[C@H]2NC(=O)[C@@H](O)CN)OC[C@]1(C)O [Compound 45, (S)-3-amino-N-((1R,2S,3S,4R,5S)-5-amino-4-((2R,3R,6S)-3-amino-6-(((S)-2,3-dihydroxypropylamino)methyl)tetrahydro-2H-pyran-2-yloxy)-2-((2R,3R,4R,5R)-3,5-dihydroxy-5-methyl-4-(methylamino)tetrahydro-2H-pyran-2-yloxy)-3-hydroxycyclohexyl)-2-hydroxypropanamide] | 1 to 8 µg/mL (≈ 1.64 to 13.1 µM) | 1 to 8 µg/mL (≈ 1.64 to 13.1 µM) | 1 to 8 µg/mL (≈ 1.64 to 13.1 µM) | 1 to 8 µg/mL (≈ 1.64 to 13.1 µM) | 1 to 8 µg/mL (≈ 1.64 to 13.1 µM) | 1 to 8 µg/mL (≈ 1.64 to 13.1 µM) | 10 mM | < 1 µg/mL | < 1 µg/mL | < 1 µg/mL | < 1 µg/mL | < 1 µg/mL | < 1 µg/mL | < 1 µg/mL | 1 to 8 µg/mL (≈ 1.64 to 13.1 µM) | 1 to 8 µg/mL (≈ 1.64 to 13.1 µM) | 1 to 8 µg/mL (≈ 1.64 to 13.1 µM) | 1 to 8 µg/mL (≈ 1.64 to 13.1 µM) | > 8 µg/mL | > 8 µg/mL | fold more cytotoxic than compound 44 ([3]; human, 48 h): at least 2 fold; MIC [5, 24]: > 8 µg/mL; MIC [5, 25]: > 8 µg/mL; MIC (PAM3073 aac(6′)-I; [26]): 1 to 8 µg/mL (≈ 1.64 to 13.1 µM); MIC (PAM3073 aac(6′)-I; [27]): 1 to 8 µg/mL (≈ 1.64 to 13.1 µM); MIC (PAM3072 aac(6′)-II; [28]): > 8 µg/mL; MIC (PAM3072 aac(6′)-II; [29]): > 8 µg/mL; MIC (ACM1006 acc(6′)-Ib; [30]): 1 to 8 µg/mL (≈ 1.64 to 13.1 µM); MIC (ACM1006 acc(6′)-Ib; [31]): 1 to 8 µg/mL (≈ 1.64 to 13.1 µM)
